Counter-ions that a name gives are not always drawn.
Tested on: MPTP-lesioned, L-DOPA-naïve cynomolgus monkeys
Test: In vivo evaluation of implants vs pulsatile subcutaneous injections ("ON" status, dyskinesia)

## CN1CCc2cccc3c2[C@H]1Cc1ccc(O)c(O)c1-3 [apomorphine, Apomorphine HCl]
Daily subcutaneous injection
  minimally-effective dose to achieve "ON" status: 0.2 mg/kg
Daily subcutaneous injections, 0.2 mg/kg, range 7-10
  time to development of dyskinesias: 8.3 days
Duration of treatment up to six months for implants, daily injections 0.2 mg/kg
  development of dyskinesia: all animals in the pulsatile injection group developed dyskinesias
Pulsatile daily subcutaneous injections, 0.2 mg/kg
  duration of "ON" state after each administration: approximately 90 minutes
